According to ChEMBL document CHEMBL1149088, “A non-peptide NK1 receptor agonist showing subpicomolar affinity” (J Med Chem, 2004):

Assays:
Substance-P receptor [1] = biological target: T1, Substance-P receptor (Homo sapiens, UniProt P25103); test: Binding affinity against human Tachykinin receptor 1 expressed in astrocytoma UC11MG cells using [125I]- SP radioligand; type: cell-based
Substance-P receptor [2] = biological target: T1, Substance-P receptor; conditions: UC11MG
Endothelial cell [3] = test: Concentration required to produce cyclic GMP levels in postcapillary endothelial cells isolated from bovine heart (CVEC); type: functional, cell-based; conditions: Bos taurus
Endothelial cell [4] = test: Concentration required to produce maximum effect on postcapillary endothelial cells isolated from bovine heart (CVEC) proliferation; type: functional, cell-based; conditions: Bos taurus
Endothelial cell [5] = test: Concentration required to produce maximum stimulation in tritiated inositol monophosphate (IP1) level in postcapillary endothelial cells isolated from bovine heart (CVEC); type: functional, cell-based; conditions: Bos taurus
Substance-P receptor [6] = biological target: T1, Substance-P receptor; test: Inhibition of labeled SP total binding against human Tachykinin receptor 1 expressed in astrocytoma UC11MG cells by the second binding component; type: cell-based

T1 sequence (P25103 whole entry): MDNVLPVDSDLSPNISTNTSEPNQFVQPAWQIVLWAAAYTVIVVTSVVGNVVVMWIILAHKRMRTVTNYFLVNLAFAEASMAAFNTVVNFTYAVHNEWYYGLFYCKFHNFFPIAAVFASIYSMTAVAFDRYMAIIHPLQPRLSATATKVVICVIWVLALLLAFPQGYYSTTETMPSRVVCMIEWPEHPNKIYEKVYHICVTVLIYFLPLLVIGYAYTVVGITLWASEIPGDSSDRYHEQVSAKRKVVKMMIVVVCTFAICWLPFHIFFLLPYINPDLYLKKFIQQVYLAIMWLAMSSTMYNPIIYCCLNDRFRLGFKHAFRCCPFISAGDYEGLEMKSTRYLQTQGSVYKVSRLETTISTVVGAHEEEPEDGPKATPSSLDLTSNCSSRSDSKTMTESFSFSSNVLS

| IC50 (Substance-P receptor [1]) | Binding (Substance-P receptor [2]) | SMILES | further results |
| --- | --- | --- | --- |
| 26 nM | 57% | O=C(NCc1cc(C(F)(F)F)cc(C(F)(F)F)c1)c1c(CCl)nc2ccccc2c1-c1ccccc1 | – |
| – | 75% | CN(Cc1cc(C(F)(F)F)cc(C(F)(F)F)c1)C(=O)c1c(CO)nc2ccccc2c1-c1ccccc1 | – |
| 17 nM | 100% | CC(C)(C)[Si](C)(C)OCc1nc2ccccc2c(-c2ccccc2)c1C(=O)NCc1cc(C(F)(F)F)cc(C(F)(F)F)c1 | – |
| 0.0001 nM | 100% | O=C(NCc1cc(C(F)(F)F)cc(C(F)(F)F)c1)c1c(CO)nc2ccccc2c1-c1ccccc1 | Concentration (Endothelial cell [3]): 100 nM; Concentration (Endothelial cell [4]): 0.1 nM; Concentration (Endothelial cell [5]): 1000 nM |
| 180 nM | 71% | CN(Cc1ccccc1)Cc1nc2ccccc2c(-c2ccccc2)c1C(=O)NCc1cc(C(F)(F)F)cc(C(F)(F)F)c1 | – |
| 0.011 nM | 82% | CNCc1nc2ccccc2c(-c2ccccc2)c1C(=O)NCc1cc(C(F)(F)F)cc(C(F)(F)F)c1 | – |
| 52 nM | 100% | CN(Cc1cc(C(F)(F)F)cc(C(F)(F)F)c1)C(=O)c1c(CBr)nc2ccccc2c1-c1ccccc1 | – |
| > 1000 nM | – | O=C(NCc1cc(C(F)(F)F)cc(C(F)(F)F)c1)c1cnc2ccccc2c1-c1ccccc1 | – |
| 0.03 nM | 83% | CN(Cc1cc(C(F)(F)F)cc(C(F)(F)F)c1)C(=O)c1cnc2ccccc2c1-c1ccccc1 | – |
| > 1000 nM | – | CN1CCN(Cc2nc3ccccc3c(-c3ccccc3)c2C(=O)NCc2cc(C(F)(F)F)cc(C(F)(F)F)c2)CC1 | – |
| 0.0017 nM | 100% | NCc1nc2ccccc2c(-c2ccccc2)c1C(=O)NCc1cc(C(F)(F)F)cc(C(F)(F)F)c1 | – |
| 0.075 nM | 78% | Cc1nc2ccccc2c(-c2ccccc2)c1C(=O)NCc1cc(C(F)(F)F)cc(C(F)(F)F)c1 | IC50 (Substance-P receptor [6]): 3900 nM |
| 0.01 nM | 71% | O=C(NCc1cc(C(F)(F)F)cc(C(F)(F)F)c1)c1c(CBr)nc2ccccc2c1-c1ccccc1 | – |
| 3.1 nM | 73% | Cc1nc2ccccc2c(-c2ccccc2)c1C(=O)N(C)Cc1cc(C(F)(F)F)cc(C(F)(F)F)c1 | – |
| 11 nM | 100% | COCc1nc2ccccc2c(-c2ccccc2)c1C(=O)N(C)Cc1cc(C(F)(F)F)cc(C(F)(F)F)c1 | – |
| 9 nM | 100% | CN(Cc1cc(C(F)(F)F)cc(C(F)(F)F)c1)C(=O)c1c(CN)nc2ccccc2c1-c1ccccc1 | – |
| 0.22 nM | 40% | CN(C)Cc1nc2ccccc2c(-c2ccccc2)c1C(=O)NCc1cc(C(F)(F)F)cc(C(F)(F)F)c1 | IC50 (Substance-P receptor [6]): 11 nM |
| > 1000 nM | – | O=C(NCc1cc(C(F)(F)F)cc(C(F)(F)F)c1)c1c(CN2C(=O)c3ccccc3C2=O)nc2ccccc2c1-c1ccccc1 | – |

| SMILES | IC50 (Substance-P receptor [1]) | Binding (Substance-P receptor [2]) | further results |
| --- | --- | --- | --- |
| Ic1ccccc1CN[C@@H]1C2CCN(CC2)[C@@H]1C(c1ccccc1)c1ccccc1 | 1.6 nM | 100% | – |
